Results as given in BindingDB's records for patent US20250313563 (The Broad Institute, 2025).
“And” between values parts separate entries of the source, which are not always exact repeats. Equal values may be shown once.

Tests used:
[1] = molecular target: Glycogen synthase kinase-3 alpha (Homo sapiens, UniProt P49840); assay: TR-FRET Assay
Method: (§1) The assay was performed in a white, 384 well, low volume, flat bottom plate (Grenier). […] The kinase activity was quenched with 2 μL of 250 mM EDTA. A 10 μL volume of 40 nM Strepavidin-d2, 2 nM Tb2+-pSer641 antibody in TR-FRET Detection Buffer (Invitrogen) was then added.

[2] = molecular target: Glycogen synthase kinase-3 beta (Homo sapiens, UniProt P49841); assay: TR-FRET Assay
Chain of Glycogen synthase kinase-3 beta (P49841 whole entry): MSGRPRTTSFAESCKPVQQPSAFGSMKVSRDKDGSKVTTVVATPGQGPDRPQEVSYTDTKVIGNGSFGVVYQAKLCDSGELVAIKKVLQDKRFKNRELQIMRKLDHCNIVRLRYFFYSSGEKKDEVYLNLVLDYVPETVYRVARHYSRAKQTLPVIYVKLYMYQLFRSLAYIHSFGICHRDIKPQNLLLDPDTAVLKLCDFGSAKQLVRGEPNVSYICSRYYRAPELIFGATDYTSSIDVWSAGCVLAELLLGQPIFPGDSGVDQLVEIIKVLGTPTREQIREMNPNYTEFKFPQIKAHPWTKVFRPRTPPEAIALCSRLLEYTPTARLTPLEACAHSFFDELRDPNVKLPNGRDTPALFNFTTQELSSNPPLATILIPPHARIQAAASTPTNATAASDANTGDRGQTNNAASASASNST
Method: as §1

Chain of Glycogen synthase kinase-3 alpha (P49840 whole entry): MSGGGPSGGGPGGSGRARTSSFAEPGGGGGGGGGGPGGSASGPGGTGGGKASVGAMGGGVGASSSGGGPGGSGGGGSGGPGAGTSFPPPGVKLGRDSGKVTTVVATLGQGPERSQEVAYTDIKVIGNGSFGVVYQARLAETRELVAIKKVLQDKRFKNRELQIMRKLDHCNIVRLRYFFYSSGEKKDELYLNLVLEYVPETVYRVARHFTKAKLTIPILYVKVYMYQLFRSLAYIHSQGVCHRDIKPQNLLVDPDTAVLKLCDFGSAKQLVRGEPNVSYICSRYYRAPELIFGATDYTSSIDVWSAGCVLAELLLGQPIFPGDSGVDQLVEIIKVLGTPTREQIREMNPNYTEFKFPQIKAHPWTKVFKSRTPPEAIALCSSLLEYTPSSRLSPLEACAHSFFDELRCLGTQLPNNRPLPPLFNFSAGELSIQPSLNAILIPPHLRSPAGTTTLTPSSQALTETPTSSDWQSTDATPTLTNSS

With `CC1N=NC2=C1C1(CN(S(=O)(=O)CC3CC3)C1)C1=C(CC(C)(C)CC1=O)N2` (stereo not given) [US20250313563, Compound 107828] the IC50 [1] was < 0.1 µM and the IC50 [2] was 0.1 to 1 µM.
With `CC(C)(C)CC1N=NC2=C1C1(CN(S(=O)(=O)CC3CC3)C1)C1=C(CC3(CCC3)CC1=O)N2` (stereo not given) [US20250313563, Compound 107829] the IC50 [1] was 1 to 5 µM and the IC50 [2] was 0.1 to 1 µM.
`CC(C)(C)CC1N=NC2=C1[C@](C)(c1cccc(S(=O)(=O)CC3CC3)c1)C1=C(CC(C)(C)NC1=O)N2` (stereo not given in full) [US20250313563, Compound 108005] gave an IC50 [1] of 0.1 to 1 µM and an IC50 [2] of 0.1 to 1 µM.
For `CC(C)(C)CC1N=NC2=C1[C@@](C)(c1cccc(S(=O)(=O)CC3CC3)c1)C1=C(CC(C)(C)NC1=O)N2` (stereo not given in full) [US20250313563, Compound 108006], the IC50 [1] was > 5 µM and the IC50 [2] was > 5 µM.
With `CC(C)(C)CC1N=NC2=C1[C@](C)(c1cccc(S(=O)(=O)N3CCCC3)c1)C1=C(CC(C)(C)NC1=O)N2` (stereo not given in full) [US20250313563, Compound 108791] the IC50 [1] was 1 to 5 µM and the IC50 [2] was 0.1 to 1 µM.
In the case of `CC(C)(C)CC1N=NC2=C1[C@@](C)(c1cccc(S(=O)(=O)N3CCCC3)c1)C1=C(CC(C)(C)NC1=O)N2` (stereo not given in full) [US20250313563, Compound 108794], the IC50 [1] is reported as > 5 µM and the IC50 [2] is reported as > 5 µM.
For `COc1cncc(F)c1-c1cccc([C@]2(C)C3=C(CC(C)(C)CC3=O)NC3=C2C(CC(C)(C)C)N=N3)c1` (stereo not given in full) [US20250313563, Compound 108954], the IC50 [1] was 1 to 5 µM and the IC50 [2] was 0.1 to 1 µM.
In the case of `COc1cncc(F)c1-c1cccc([C@@]2(C)C3=C(CC(C)(C)CC3=O)NC3=C2C(CC(C)(C)C)N=N3)c1` (stereo not given in full) [US20250313563, Compound 108956], the IC50 [1] is reported as > 5 µM and the IC50 [2] is reported as 1 to 5 µM.
In the case of `CC1(C)CC(=O)C2=C(C1)NC1=C(C(C3CC3)N=N1)C21CN(S(=O)(=O)CC2CC2)C1` (stereo not given) [US20250313563, Compound 109152], the IC50 [1] is reported as 0.1 to 1 µM and the IC50 [2] is reported as 0.1 to 1 µM.
`CC(C)(C)CC1N=NC2=C1[C@](C)(c1ccccc1)C1=C(CC(C)(C)NC1=O)N2` (stereo not given in full) [US20250313563, Compound 114531] was tested, and the IC50 [1] was > 5 µM and the IC50 [2] was 1 to 5 µM.
For `CC1(C)CC2=C(C(=O)N1)[C@@](C)(c1cccc(S(C)(=O)=O)c1)C1=C(N=NC1C1CC1)N2` (stereo not given in full) [US20250313563, Compound 114679], the IC50 [1] was < 0.1 µM and the IC50 [2] was 0.1 to 1 µM.
`CC(C)(C)CC1=C2C(N=N1)NC1=C(C(=O)CC(C)(C)C1)[C@@]21COc2ccccc21` (stereo not given in full) [US20250313563, Compound 117093] showed an IC50 [1] of 1 to 5 µM and an IC50 [2] of 0.1 to 1 µM.
For `CN1C[C@]2(C3=C(CC(C)(C)CC3=O)NC3N=NC(C4CC(F)(F)C4)=C32)c2ccccc21` (stereo not given in full) [US20250313563, Compound 119047], the IC50 [1] was 1 to 5 µM and the IC50 [2] was 0.1 to 1 µM.
`CN1C[C@@]2(C3=C(CC(C)(C)CC3=O)NC3N=NC(C4CC(F)(F)C4)=C32)c2ccccc21` (stereo not given in full) [US20250313563, Compound 119048] gave an IC50 [1] of 1 to 5 µM and an IC50 [2] of 0.1 to 1 µM.
Work on `CC(C)(C)CC1N=NC2=C1[C@](C)(c1cc(S(C)(=O)=O)ccc1F)C1=C(CC(C)(C)CC1=O)N2` (stereo not given in full) [US20250313563, Compound 125976] yielded an IC50 [1] of 1 to 5 µM and an IC50 [2] of 0.1 to 1 µM.
`CC[C@]1(c2cccc(-c3ccncc3C)c2)C2=CN=NC2NC2=C1C(=O)NC1(CCOCC1)C2` (stereo not given in full) [US20250313563, Compound 948367] gave an IC50 [1] of 0.1 to 1 µM.
Molecule `CC[C@@]1(c2cccc(C(F)(F)F)c2)C2=CN=NC2NC2=C1C(=O)N(c1cncnc1)CC2` (stereo not given in full) [US20250313563, Compound 948380] has an IC50 [1] of 0.1 to 1 µM.
Work on `CC[C@]1(c2cccc(-c3c(F)cncc3F)c2)C2=CN=NC2NC2=C1C(=O)NC(C)(C)C2` (stereo not given in full) [US20250313563, Compound 948514] yielded an IC50 [1] of 1 to 5 µM.
Molecule `CC[C@]1(c2cccc(-c3ccnn3C)c2)C2=CN=NC2NC2=C1C(=O)NC1(CCC1)C2` (stereo not given in full) [US20250313563, Compound 948522] has an IC50 [1] of 0.1 to 1 µM.
For `CC[C@]1(c2cccc(-c3ccnc(C)c3)c2)C2=CN=NC2NC2=C1C(=O)NC1(CCOCC1)C2` (stereo not given in full) [US20250313563, Compound 948524], the IC50 [1] was 1 to 5 µM.
In the case of `CC[C@]1(c2cccc(-c3ccnc(C)c3)c2)C2=C(CC(C)(C)NC2=O)NC2N=NC(C(F)(F)F)=C21` (stereo not given in full) [US20250313563, Compound 948773], the IC50 [1] is reported as 1 to 5 µM.
`CCC1(c2cccc(OCC(F)F)c2)C2=CN=NC2NC2=C1C(=O)CC(C)(C)C2` (stereo not given) [US20250313563, Compound 948793] was tested, and the IC50 [1] was < 0.1 µM and 0.1 to 1 µM.
`CC[C@]1(c2cccc(-c3cnn(C)c3C(F)(F)F)c2)C2=CN=NC2NC2=C1C(=O)NC(C)(C)C2` (stereo not given in full) [US20250313563, Compound 948826] was tested, and the IC50 [1] was 1 to 5 µM.
`CC[C@]1(c2cccc(-c3cn(C)nc3C)c2)C2=CN=NC2NC2=C1C(=O)N(C)C(C)(C)C2` (stereo not given in full) [US20250313563, Compound 949008] gave an IC50 [1] of 1 to 5 µM.
`CC[C@]1(c2cccc(-c3cnn(CCOC)c3)c2)C2=CN=NC2NC2=C1C(=O)NC(C)(C)C2` (stereo not given in full) [US20250313563, Compound 949114] gave an IC50 [1] of 1 to 5 µM.
Work on `CC[C@@]1(c2cccc(C(F)(F)C(F)(F)F)c2)C2=CN=NC2NC2=C1C(=O)CC(C)(C)C2` (stereo not given in full) [US20250313563, Compound 949268] yielded an IC50 [1] of 1 to 5 µM.
Molecule `CCc1cccc([C@]2(CC)C3=CN=NC3NC3=C2C(=O)CC(C)(C)C3)c1` (stereo not given in full) [US20250313563, Compound 949391] has an IC50 [1] of 1 to 5 µM.
`CC[C@]1(c2cccc(-c3cnn(C4CC4(F)F)c3)c2)C2=CN=NC2NC2=C1C(=O)NC(C)(C)C2` (stereo not given in full) [US20250313563, Compound 949393] showed an IC50 [1] of 1 to 5 µM.
For `CC[C@]1(c2cccc(-c3cnn(C)c3F)c2)C2=CN=NC2NC2=C1C(=O)NC(C)(C)C2` (stereo not given in full) [US20250313563, Compound 949395], the IC50 [1] was 1 to 5 µM.
`CC[C@@]1(c2cccc(C3CCC3)c2)C2=CN=NC2NC2=C1C(=O)CC(C)(C)C2` (stereo not given in full) [US20250313563, Compound 949514] showed an IC50 [1] of 1 to 5 µM.
Work on `CC[C@@]1(c2cccc(-c3ccncc3F)c2)C2=C(CC(C)(C)NC2=O)NC2N=NC(F)=C21` (stereo not given in full) [US20250313563, Compound 949651] yielded an IC50 [1] of 0.1 to 1 µM.
In the case of `CC[C@@]1(c2cccc(-c3ccnc(C)c3)c2)C2=C(CC(C)(C)NC2=O)NC2N=NC(C(F)F)=C21` (stereo not given in full) [US20250313563, Compound 950163], the IC50 [1] is reported as < 0.1 µM and 0.1 to 1 µM.
Work on `CC[C@]1(c2cccc(C(F)(F)F)c2)C2=CN=NC2NC2=C1C(=O)C[C@]1(CCN(C)C1=O)C2` (stereo not given in full) [US20250313563, Compound 950330] yielded an IC50 [1] of 0.1 to 1 µM.
Work on `CC[C@@]1(c2cccc(C(F)(F)F)c2)C2=CN=NC2NC2=C1C(=O)C[C@@]1(CCNC1=O)C2` (stereo not given in full) [US20250313563, Compound 950331] yielded an IC50 [1] of 0.1 to 1 µM.
With `CC[C@@]1(c2cccc(-c3c(C)cnn3C)c2)C2=CN=NC2NC2=C1C(=O)NC(C)(C)C2` (stereo not given in full) [US20250313563, Compound 952021] the IC50 [1] was < 0.1 µM and 0.1 to 1 µM.
For `CC[C@@]1(c2cccc(N(C)c3ncccn3)c2)C2=C(N=NC2)NC2=C1C(=O)C(C)(C)C2` [US20250313563, Compound 952205], the IC50 [1] was 1 to 5 µM.
For `CC[C@@]1(c2cccc(-c3ccnc4cccnc34)c2)C2=CN=NC2NC2=C1C(=O)NC(C)(C)C2` (stereo not given in full) [US20250313563, Compound 952560], the IC50 [1] was < 0.1 µM and 0.1 to 1 µM.
`CC[C@@]1(c2cccc(-c3ccnn3C)c2)C2=CN=NC2NC2=C1C(=O)CC(C)(C)[C@@H]2F` (stereo not given in full) [US20250313563, Compound 957509] was tested, and the IC50 [1] was 0.1 to 1 µM.
`CC[C@@]1(c2cccc(-c3cnn(C)c3)c2)C2=CN=NC2NC2=C1C(=O)CC(C)(C)[C@H]2F` (stereo not given in full) [US20250313563, Compound 957510] gave an IC50 [1] of 1 to 5 µM.
With `CC[C@]1(c2cccc(-c3ccncc3)c2)C2=CN=NC2NC2=C1C(=O)CC(C)(C)[C@H]2F` (stereo not given in full) [US20250313563, Compound 959342] the IC50 [1] was 1 to 5 µM.
